In patent publication US20120122716A1, “CELL LINE DERIVED FROM THE EPITHELIAL LINING OF THE HUMAN ENDOLYMPHATIC SAC IN THE INNER EAR” (priority 2010, published 2012):

Tests used:
AQP2 = test: RT-PCR analysis of AQP2 expression in ES cells; format: cell-based; details: immortalized human ES epithelial cells
Excerpt: The inner ear can function properly only if the chemical equilibrium and volume of inner ear fluids are maintained. The disruption of inner ear homeostasis results in many inner ear disorders such as Meniere's disease. The endolymphatic sac (ES) is believed to be involved in homeostasis of endolymph such as ion and fluid regulation. Aquaporins (AQPs) function like a molecular water valve, allowing water to move along a specific direction. AQP1, 2, 3, 4, and 6 are all found in the ES and may have an important role in endolymph fluid homeostasis. […] Taken together, our findings indicate that ES epithelial cells are invovled in homeostasis of endolymph through regulation of AQP2 and AQP3. We believe that our ES cell line will provide an in vitro model enabling us to better understand the molecular pathogeneis of Meniere's disease.

ES cells = test: Water permeability of ES cells (fluorescence-quenching assay); format: cell-based; details: immortalized human ES epithelial cells
Protocol: For water permeability measurement, an ES cell line is plated in 96-well clear bottom of black-walled microplates (Costar) at a density of 20000 cells per well in F-12 Ham's medium supplemented with 10% FBS and 0.5 mg/mL G418. After incubation at 37° C. in an atmosphere containing 5% CO2 with 90% humidity for 18 h, the cells in 96-well plates are washed twice in PBS buffer (200 μL/wash), leaving 100 μL PBS after the last wash. Measurement is performed on a FLUOstar Optima plate reader (BMG Technology) equipped with syringe pumps and excitation and emission filters. Cells in each well of the plate are assayed individually for osmotically driven (e.g., aquaporin-mediated), water influx across the plasma membrane that dilutes the cytoplasmic Cl^− by recording fluorescence increase continuously (0.2 s per point) for 2 s (baseline) and then for 21 s (water transport into the cells) after rapid injection (<1 s) of 100 μL distilled water. Water permeability is expressed as half time (t1/2) from water injection to the point when the cytoplasmic fluorescence reaches the maximum. A smaller t1/2 represents a higher water permeability.
The inner ear can function properly only if the chemical equilibrium and volume of inner ear fluids are maintained. The disruption of inner ear homeostasis results in many inner ear disorders such as Meniere's disease. […]

[1] = system: mucin core proteins and hyaluronic acid synthases; test: qRT-PCR analysis of mucin core proteins and hyaluronic acid synthases in HESC-1 cells; format: cell-based, human
Excerpt: We identified hyaluronic acid among the osmotically active substances derived from our ES cell line. Three isoforms of hyaluronic acid synthases (HASs) are identified in humans. For example, transcriptional regulation of each HAS can be determined using real-time quantitative RT-PCR analysis after extraction of total RNAs from the ES cell line. Protein levels of each HAS can be measured using immunobloting after extraction of total proteins from the ES cell line. To determine the factors regulating each HAS, the cells can be cultured using a serum-free medium with deficiency of a specific factor such as retinoic acid, hydrocortisone and triiodothronine.
(§1) Regulatory mechanisms involved in secretion and biological functions of these molecules can be determined. The HESC-1 cells provides a basis for an in vitro model for the studies of secretory function of the ES.

HESC-1 cells = test: Secretion of viscous substance by HESC-1 cells; format: cell-based, human
Excerpt: For example, viscosity of the substance derived from the cells can be measured using an Ubbelohde viscometer (VWR) after collection of the supernatant. Osmolality of the substance can be measured using a freezing point osmometer (Precision Systems, Natick, MA). To determine the factors influencing secretion of osmotically active and viscous substances, the cells can be cultured using a serum-free medium with deficiency of a specific factor such as retinoic acid, hydrocortisone and triiodothronine.
as §1

Compound | AQP2 expression (RT-PCR) (AQP2) | water permeability of ES cells upon exposure (ES cells) | expression of mucin core proteins and hyaluronic acid synthases (qRT-PCR) [1] | secretion of viscous substance (HESC-1 cells)
NC(=O)CC[C@@H]1NC(=O)[C@H](Cc2ccccc2)NC(=O)[C@H](Cc2ccc(O)cc2)NC(=O)[C@@H](N)CSSC[C@@H](C(=O)N2CCC[C@H]2C(=O)N[C@@H](CCCN=C(N)N)C(=O)NCC(N)=O)NC(=O)[C@H](CC(N)=O)NC1=O [vasopressin] | up-regulation | affected |  | 
EGF: human epidermal growth factor (EGF) (NSDSECPLSHDGYCLHDGVCMYIEALDKYACNCVVGYIGERCQYRDLKWWELR; UniProt P01133 971-1023, looked up) |  |  | up-regulate | secrete viscous substance
